Measured values: patent publication US20240408126A1, “BACTERIAL CAPSULAR OLIGOSACCHARIDE DERIVATIVE, PREPARATION METHOD THEREFOR, PHARMACEUTICAL COMPOSITION AND USE THEREOF” (PEKING UNIVERSITY, priority 2021, published 2024)

Assays:
[1] = system: LPS-induced sepsis model; experiment: LPS-induced survival rate in sepsis model of mice; assay type: in vivo, male C57BL/6 mice; conditions: three times, LPS 45 mg/kg, after 72 hours, model group 40%
Description: A total of 60 male C57BL/6 mice aged 6-8 weeks, weighing 20±2 g, were selected. The mice were placed in a feeding room with temperature of 20-24° C. and humidity of 50%-60%, and were allowed to drink and eat freely. They were adaptively raised for 7 days before the experiment.
The mice were randomly divided into six groups: control group, model group, CP-1 high dose group (30 mg/kg), CP-1 middle dose group (10 mg/kg), CP-1 low dose group (3 mg/kg), and dexamethasone group, with 10 mice in each group. CP-1 high-dose group was intraperitoneally injected with 200 μL CP-1 solution at the concentration of 30 mg/kg, CP-1 middle-dose group was intraperitoneally injected with equal volume of CP-1 solution at the concentration of 10 mg/kg, CP-1 low-dose group was intraperitoneally injected with equal volume of CP-1 solution at the concentration of 3 mg/kg, dexamethasone group was intraperitoneally injected with equal volume of dexamethasone solution at the concentration of 30 mg/kg, and control group was intraperitoneally injected with equal volume of 0.9% normal saline. Except for the control group, all groups were intraperitoneally injected with 200 μL of LPS solution at 45 mg/kg for modeling. Each group was administered once for a total of three times, 48 hours and 24 hours before modeling, and 30 minutes after modeling. After administration, the state and survival rate of mice were observed and recorded every 6 hours for 72 hours.

[2] = system: LPS-induced inflammatory factors in serum; experiment: LPS-induced cytokines in serum of sepsis mouse model (CP-Me); assay type: in vivo, male C57BL/6 mice; conditions: 10 mg/kg and 3 mg/kg intraperitoneal, two times; LPS 25 mg/kg; serum after 12 hours; IL-1β, IL-6, TNF-α; FIG. 7
Description: A total of 24 male C57BL/6 mice aged 6-8 weeks, weighing 20±2 g, were selected. The mice were placed in a feeding room with temperature of 20-24° C. and humidity of 50%-60%, and were allowed to drink and eat freely. They were adaptively raised for 7 days before the experiment. Mice were randomly divided into four groups: control group, CP-Me group, LPS group and LPS+CP-Me group, with 6 mice in each group. CP-Me 10 mg/kg group and CP-Me 3 mg/kg group were intraperitoneally injected with 200 μL CP-Me solution at the concentrations of 10 mg/kg and 3 mg/kg, while the control group and LPS group were intraperitoneally injected with equal volume of 0.9% normal saline. LPS group was injected intraperitoneally with 200 μL LPS solution at 25 mg/kg for modeling. Each group was administered once for a total of two times, 12 hours before modeling and 30 minutes after modeling. After 12 hours of administration, the mice were anesthetized and blood was taken from the heart. After the blood stood for 2 hours, it was centrifuged at 5000 rpm for 10 minutes to collect serum. According to the instructions of Elisa kit, the absorbance of each hole was detected by using a multifunctional enzyme-labeled instrument at the wavelength of 450 nm, and the contents of cytokines IL-1β, IL-6, and TNF-α were calculated according to the standard curve.

SMILES | survival rate of mice ([1]; 3 mg/kg (low dose) intraperitoneal) | survival rate of mice ([1]; 10 mg/kg (middle dose) intraperitoneal) | survival rate of mice ([1]; 30 mg/kg intraperitoneal) | effect on LPS-induced inflammatory factors in serum [2]
CC(=O)NC1[C@H](OC2[C@@H](O[C@@H]3C(NC(C)=O)C(O)OC(CO)[C@@H]3O)OC(C(=O)O)[C@H](O)[C@@H]2O)OC(CO)[C@@H](O)[C@@H]1O[C@@H]1OC(C(=O)O)[C@@H](O)[C@H](O)C1O (stereo partly drawn) [CP-1, β-D-glucopyranuronic acid-(1→3)-2-deoxy-2-acetylamino-β-D-glucopyranosyl-(1→2)-α-D-galactopyranoic acid-(1→3)-2-deoxy-2-acetylamino-α,β-D-galactopyranoside] | 70% | 80% | 70% | –
C[C@@H]1C[C@H]2[C@@H]3CCC4=CC(=O)C=C[C@]4(C)[C@@]3(F)[C@@H](O)C[C@]2(C)[C@@]1(O)C(=O)CO [dexamethasone, reference compound] | – | – | 60% | –
CO[C@@H]1OC(CO)[C@H](O)C(O[C@H]2OC(C(=O)O)[C@H](O)C(O)C2O[C@@H]2OC(CO)[C@@H](O)C(O[C@@H]3OC(C(=O)O)[C@@H](O)C(O)C3O)C2NC(C)=O)C1NC(C)=O (stereo partly drawn) [CP-Me, methyl β-D-glucopyranuronic acid-(1→3)-2-deoxy-2-acetylamino-β-D-glucopyranosyl-(1→2)-α-D-galactopyranoic acid-(1→3)-2-deoxy-2-acetylamino-α,β-D-galactopyranoside] | – | – | – | inhibitory effect
